Source: ChEMBL document CHEMBL5620374, “Synthesis and bioevaluation of novel stilbene-based derivatives as tubulin/HDAC dual-target inhibitors with potent antitumor activities in vitro and in vivo” (Eur J Med Chem, 2023)
Activity calls are given as the source filed them. No cut-off for these calls is given here.

Columns and labels:
K562 [1] = experiment: Induction of apoptosis in human K562 cells assessed as chromatin aggregation at 2 to 8 nM incubated for 48 hrs by Hoechst 33342 staining based analysis; format: functional, cell-based; conditions: dose 2-8 nM
K562 [2] = experiment: Induction of ROS generation in human K562 cells assessed as DCF-positive cells at 4 nM incubated for 48 hrs by DCF-DA probe based flow cytometry (reference value: 3.87 %); format: functional
H22 [3] = experiment: Antitumor activity against mouse H22 cells allografted in ICR mouse assessed as decrease in tumor microvessel density at 20 mg/kg, iv qd for 17 days consecutively by IHC analysis; format: functional, organism-based; conditions: time 17.0 day
K562 [4] = experiment: Effect on cell cycle in human K562 cells assessed as decrease in Cdc25c level incubated for 24 hrs by Western blot analysis; format: functional, cell-based; conditions: dose 2-8 nM
[5] = Toxicity in ICR mouse allografted with mouse H22 cells assessed as toxic sign in kidney at 10 to 20 mg/kg, iv qd for 17 days consecutively by H and E staining based analysis; format: organism-based; conditions: in vivo, dose 10-20 mg/kg, time 17 day
[6] = Antiproliferative activity against human HFL1 cells incubated for 72 hrs by MTT assay; format: toxicity, cell-based
A549 = experiment: cells; conditions: Homo sapiens, A549, 72 h
Description: Antiproliferative activity against human A549 cells incubated for 72 hrs by MTT assay

K562 [7] = experiment: Effect on cell cycle in human K562 cells assessed as decrease in Cdc2 level incubated for 24 hrs by Western blot analysis; format: functional, cell-based; conditions: dose 2-8 nM
Histone deacetylase 2 = Histone deacetylase 2 (Homo sapiens, UniProt Q92769); experiment: Inhibition of HDAC2 in human K562 cells assessed as increase in Acetyl-histone H3 level at 0.01 to 1 uM incubated for 24 hrs by Western blot analysis; format: cell-based; conditions: dose 0.01-1 µM
Sequence of Histone deacetylase 2 (Q92769 whole entry): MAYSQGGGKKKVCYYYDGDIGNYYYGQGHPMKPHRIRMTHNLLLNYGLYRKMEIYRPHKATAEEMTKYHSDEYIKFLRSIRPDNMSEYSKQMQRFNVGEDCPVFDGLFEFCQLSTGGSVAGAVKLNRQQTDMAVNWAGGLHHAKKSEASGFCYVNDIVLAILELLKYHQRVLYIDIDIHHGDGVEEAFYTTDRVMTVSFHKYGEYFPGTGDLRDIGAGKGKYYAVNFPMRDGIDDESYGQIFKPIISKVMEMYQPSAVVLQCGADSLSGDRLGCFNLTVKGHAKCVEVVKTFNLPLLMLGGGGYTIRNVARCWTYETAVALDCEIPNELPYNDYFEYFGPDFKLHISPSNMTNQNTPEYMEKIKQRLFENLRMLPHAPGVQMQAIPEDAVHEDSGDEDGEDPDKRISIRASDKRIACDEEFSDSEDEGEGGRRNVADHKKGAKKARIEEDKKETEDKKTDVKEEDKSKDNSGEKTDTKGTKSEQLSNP

[8] = Toxicity in ICR mouse allografted with mouse H22 cells assessed as toxic sign in lung at 10 to 20 mg/kg, iv qd for 17 days consecutively by H and E staining based analysis; format: organism-based; conditions: in vivo, dose 10-20 mg/kg, time 17 day
[9] = Toxicity in ICR mouse allografted with mouse H22 cells assessed as toxic sign in heart at 10 to 20 mg/kg, iv qd for 17 days consecutively by H and E staining based analysis; format: organism-based; conditions: in vivo, dose 10-20 mg/kg, time 17 day
K562 [10] = experiment: Induction of cell cycle arrest at G1 phase in human K562 cells at 8 nM incubated for 48 hrs by PI staining based flow cytometry (reference value: 62.08 +/- 0.40 %); format: functional
K562 [11] = experiment: Induction of cell cycle arrest at G1 phase in human K562 cells at 4 nM incubated for 48 hrs by PI staining based flow cytometry (reference value: 62.08 +/- 0.40 %); format: functional
K562 [12] = experiment: Induction of apoptosis in human K562 cells assessed as late apoptotic cells at 4 nM incubated for 48 hrs by Annexin V/PI staining based flow cytometry (reference value: 3.37 +/- 0.21 %); format: functional
H22 [13] = experiment: Antiproliferative activity against mouse H22 cells incubated for 72 hrs by MTT assay; format: functional, cell-based; conditions: H22, 72 h
H22 [14] = experiment: Antitumor activity against mouse H22 cells allografted in ICR mouse assessed as decrease in tumor weight at 10 to 20 mg/kg, iv qd for 17 days consecutively; format: functional, organism-based; conditions: dose 10-20 mg/kg, time 17.0 day
K562 [15] = experiment: Induction of cell cycle arrest at G2 phase in human K562 cells at 2 nM incubated for 48 hrs by PI staining based flow cytometry (Rvb =15.36 +/- 0.46 %); format: functional
K562 [16] = experiment: Induction of apoptosis in human K562 cells assessed as nuclear fragmentation at 2 to 8 nM incubated for 48 hrs by Hoechst 33342 staining based analysis; format: functional, cell-based; conditions: dose 2-8 nM
A2780 = experiment: cells; conditions: Homo sapiens, A2780, 72 h
Description: Antiproliferative activity against human A2780 cells incubated for 72 hrs by MTT assay

K562 [17] = experiment: Induction of apoptosis in human K562 cells assessed as viable cells at 2 nM incubated for 48 hrs by Annexin V/PI staining based flow cytometry (reference value: 92.52 +/- 0.34 %); format: functional; conditions: read-out: Activity
K562 [18] = experiment: Induction of apoptosis in human K562 cells assessed as increase in Bad level incubated for 24 hrs by Western blot analysis; format: functional, cell-based; conditions: dose 2-8 nM
K562 [19] = experiment: Induction of cell cycle arrest at S phase in human K562 cells at 4 nM incubated for 48 hrs by PI staining based flow cytometry (reference value: 22.56 +/- 0.47 %); format: functional
K562 [20] = experiment: Induction of apoptosis in human K562 cells assessed as early apoptotic cells at 4 nM incubated for 48 hrs by Annexin V/PI staining based flow cytometry (reference value: 1.55 +/- 0.21 %); format: functional
K562 [21] = experiment: Induction of apoptosis in human K562 cells assessed as viable cells at 8 nM incubated for 48 hrs by Annexin V/PI staining based flow cytometry (reference value: 92.52 +/- 0.34 %); format: functional; conditions: read-out: Activity
MDA-MB-231 = experiment: Inhibition of cell […] in human MDA-MB-231 cells incubated for 24 hrs by wound healing assay; format: functional, cell-based; conditions: dose 2-8 nM
H22 [22] = experiment: Antitumor activity against mouse H22 cells allografted in ICR mouse assessed as decrease in tumor volume at 10 to 20 mg/kg, iv qd for 17 days consecutively; format: functional, organism-based; conditions: dose 10-20 mg/kg, time 17.0 day
K562 [23] = experiment: Inhibition of mitochondrial membrane potential in human K562 cells assessed as red fluorescence intensity at 8 nM incubated for 48 hrs by JC-1 staining based flow cytometry (reference value: 93.36 +/- 0.21 %); format: functional

What does the source list for `C=C(c1ccc(OC)c(OC(F)C(=O)NO)c1)c1cc(C)nc2ccccc12` (configuration not stated)?
Activity (K562 [1]): Active; Activity (K562 [2]): 29.72%; Activity (H22 [3]): Active; Activity (K562 [4]): Dose-Dependent Effect; Activity [5]: Non-Toxic; IC50 at 72 h [6]: 0.23 µM; IC50 (A549): 0.017 µM; Activity (K562 [7]): Dose-Dependent Effect; inhibition (Histone deacetylase 2): Active; Activity [8]: Non-Toxic; Activity [9]: Non-Toxic; Activity (K562 [10]): 41.72%; Activity (K562 [11]): 49.35%; Activity (K562 [12]): 8.7%; IC50 (H22 [13]): 0.008 µM; Activity (H22 [14]): Active; Activity (K562 [15]): 20.48%; Activity (K562 [16]): Active; IC50 (A2780): 0.005 µM; viability at 0.002 µM (K562 [17]): 81.2%; Activity (K562 [18]): Dose-Dependent Effect; Activity (K562 [19]): 26.6%; Activity (K562 [20]): 24.51%; viability at 0.008 µM (K562 [21]): 52.6%; inhibition (MDA-MB-231): Dose-Dependent Effect; Activity (H22 [22]): Active; Flu intensity (K562 [23]): 57.69%
